# Reference: ChEMBL document CHEMBL2311461, “Linear and cyclic glycopeptide as HIV protease inhibitors” (Eur J Med Chem, 2013)
# Assay: Inhibition of C-south african HIV-1 protease assessed as hydrolysis of the chromogenic peptide substrate Lys-Ala-Arg-Val-Nle-p-nitro-Phe-Glu-Ala-Nle-NH2
# Parameters: species or system Human immunodeficiency virus 1
row,Structure (SMILES),IC50 [nM]
1,CC[C@H](C)[C@@H]1NC(=O)[C@H](C)NC(=O)[C@H](CCC(=O)O)NC(=O)C[C@@H](C2O[C@@H]3OC(C)(C)O[C@@H]3[C@H]2O)NC1=O (some centres not stated),2620
2,CC[C@H](C)[C@@H]1NC(=O)[C@H](C)NC(=O)C[C@@H](C2O[C@@H]3OC(C)(C)O[C@@H]3[C@H]2O)NC(=O)[C@H](CO)NC1=O (some centres not stated),3000
3,CC(C)[C@@H]1NC(=O)[C@H](Cc2ccccc2)NC(=O)C[C@@H](C2O[C@@H]3OC(C)(C)O[C@@H]3[C@H]2O)NC(=O)[C@H](C)NC1=O (some centres not stated),961
4,CC[C@H](C)[C@@H]1NC(=O)[C@H](C)NC(=O)[C@H](CCC(=O)OCc2ccccc2)NC(=O)C[C@@H](C2O[C@@H]3OC(C)(C)O[C@@H]3[C@H]2OCc2ccccc2)NC1=O (some centres not stated),2500
5,CC[C@H](C)[C@@H]1NC(=O)[C@H](C)NC(=O)C[C@@H](C2O[C@@H]3OC(C)(C)O[C@@H]3[C@H]2OCc2ccccc2)NC(=O)[C@H](COCc2ccccc2)NC1=O (some centres not stated),> 10000
6,CC(C)[C@@H]1NC(=O)[C@H](Cc2ccccc2)NC(=O)C[C@@H](C2O[C@@H]3OC(C)(C)O[C@@H]3[C@H]2OCc2ccccc2)NC(=O)[C@H](C)NC1=O (some centres not stated),6500
7,CC[C@H](C)[C@H](NC(=O)[C@H](C)NC(=O)[C@H](CCC(=O)O)NC(=O)C[C@H](N)C1O[C@@H]2OC(C)(C)O[C@@H]2[C@H]1O)C(=O)O (some centres not stated),3050
8,CC[C@H](C)[C@H](NC(=O)[C@H](C)NC(=O)C[C@H](N)C1O[C@@H]2OC(C)(C)O[C@@H]2[C@H]1O)C(=O)N[C@@H](CO)C(=O)O (some centres not stated),1500
9,CC(C)[C@H](NC(=O)[C@H](Cc1ccccc1)NC(=O)C[C@H](N)C1O[C@@H]2OC(C)(C)O[C@@H]2[C@H]1O)C(=O)N[C@@H](C)C(=O)O (some centres not stated),1100
10,CC[C@H](C)[C@H](NC(=O)[C@H](C)NC(=O)[C@H](CCC(=O)OCc1ccccc1)NC(=O)C[C@H](N)C1O[C@@H]2OC(C)(C)O[C@@H]2[C@H]1OCc1ccccc1)C(=O)O (some centres not stated),3500
11,CC[C@H](C)[C@H](NC(=O)[C@H](C)NC(=O)C[C@H](N)C1O[C@@H]2OC(C)(C)O[C@@H]2[C@H]1OCc1ccccc1)C(=O)N[C@@H](COCc1ccccc1)C(=O)O (some centres not stated),> 10000
12,CC(C)[C@H](NC(=O)[C@H](Cc1ccccc1)NC(=O)C[C@H](N)C1O[C@@H]2OC(C)(C)O[C@@H]2[C@H]1OCc1ccccc1)C(=O)N[C@@H](C)C(=O)O (some centres not stated),1340
13,CC[C@H](C)[C@H](NC(=O)[C@H](C)NC(=O)[C@H](CCC(=O)OCc1ccccc1)NC(=O)C[C@H](NCc1ccccc1)C1O[C@@H]2OC(C)(C)O[C@@H]2[C@H]1OCc1ccccc1)C(=O)O (some centres not stated),5000
14,CC[C@H](C)[C@H](NC(=O)[C@H](C)NC(=O)C[C@H](NCc1ccccc1)C1O[C@@H]2OC(C)(C)O[C@@H]2[C@H]1OCc1ccccc1)C(=O)N[C@@H](COCc1ccccc1)C(=O)O (some centres not stated),> 10000
15,CC(C)[C@H](NC(=O)[C@H](Cc1ccccc1)NC(=O)C[C@H](NCc1ccccc1)C1O[C@@H]2OC(C)(C)O[C@@H]2[C@H]1OCc1ccccc1)C(=O)N[C@@H](C)C(=O)O (some centres not stated),2380
16,COC(=O)N[C@H](C(=O)N[C@@H](Cc1ccccc1)[C@@H](O)CN(Cc1ccc(-c2ccccn2)cc1)NC(=O)[C@@H](NC(=O)OC)C(C)(C)C)C(C)(C)C [ATAZANAVIR],4
17,Cc1cccc(C)c1OCC(=O)N[C@@H](Cc1ccccc1)[C@@H](O)C[C@H](Cc1ccccc1)NC(=O)[C@H](C(C)C)N1CCCNC1=O [LOPINAVIR],25
